Assay results: PMC8032764 (Scientific Reports, 2021)

Experiments:
Serotonin 5-HT1B = tested on: T1, Serotonin 5-HT1B; assay: Cerep binding; conditions: 10 μM; [125I]CYP; rat cerebral cortex
T1 construct: purchased Eurofins Cerep

Serotonin 5-HT2B = tested on: T2, Serotonin 5-HT2B; assay: Cerep binding; parameters: species or system human; conditions: 10 μM; [125I](±)DOI; hum. recomb. (CHO)
T2 construct: purchased Eurofins Cerep

Serotonin 5-HT7 = tested on: T3, Serotonin 5-HT7; assay: Cerep binding; parameters: species or system human; conditions: 10 μM; [3H]LSD; hum. recomb. (CHO)
T3 construct: purchased Eurofins Cerep

[1] = tested on: T4, Calcitonin gene related peptide (CGRP); assay: Cerep binding; parameters: species or system human; conditions: 10 μM; [125I]hCGRPα; hum. recomb. (CHO)
T4 construct: purchased Eurofins Cerep

Cholecystokinin CCK1 = tested on: T5, Cholecystokinin CCK1; assay: Cerep binding; parameters: species or system human; conditions: 10 μM; [125I]CCK-8s; hum. recomb. (CHO)
T5 construct: purchased Eurofins Cerep

Neurotensin NTS1 (NT1) = tested on: T6, Neurotensin NTS1 (NT1); assay: Cerep binding; parameters: species or system human; conditions: 10 μM; [125I]Tyr3-neurotensin; hum. recomb. (CHO)
T6 construct: host or cells: CHO

Opioid δ2 = tested on: T7, Opioid δ2; assay: Cerep binding; parameters: species or system human; conditions: 10 μM; [3H]DADLE; hum. recomb. (CHO)
T7 construct: host or cells: CHO

[2] = tested on: T8, Vasoactive intestinal peptide VPAC1 (VIP1); assay: Cerep binding; parameters: species or system human; conditions: 10 μM; [125I]VIP; hum. recomb. (CHO)
T8 construct: host or cells: CHO

[3] = tested on: Ca2+ channel, L-type (phenylalkylamine site); assay: Cerep binding; conditions: 10 μM; [3H](-)D 888; rat cerebral cortex
[4] = Plasma concentration in PET study; format: in vivo; conditions: human
Procedure: The study was single-blind, i.e., subjects were blinded to dose. Blood sampling was performed at four different timepoints starting 30 min before the post dose PET scan.

healthy subjects = assay: Safety in healthy volunteers in the PET and EEG studies; format: in vivo, human
non-impaired rodents = assay: Cognitive performance in non-impaired rodents; format: in vivo; conditions: data not shown
human GABAA α5β3γ2 = human GABAA α5β3γ2 (Homo sapiens, UniProt P18507+P31644); assay: Two-electrode voltage clamp in Xenopus oocytes, current induced by EC10 of GABA; format: cell-based; parameters: expressed in transfected cells; host or cells: Xenopus laevis oocytes, cRNA injection
human GABAA α5β3γ2, sequence (P31644 32-462): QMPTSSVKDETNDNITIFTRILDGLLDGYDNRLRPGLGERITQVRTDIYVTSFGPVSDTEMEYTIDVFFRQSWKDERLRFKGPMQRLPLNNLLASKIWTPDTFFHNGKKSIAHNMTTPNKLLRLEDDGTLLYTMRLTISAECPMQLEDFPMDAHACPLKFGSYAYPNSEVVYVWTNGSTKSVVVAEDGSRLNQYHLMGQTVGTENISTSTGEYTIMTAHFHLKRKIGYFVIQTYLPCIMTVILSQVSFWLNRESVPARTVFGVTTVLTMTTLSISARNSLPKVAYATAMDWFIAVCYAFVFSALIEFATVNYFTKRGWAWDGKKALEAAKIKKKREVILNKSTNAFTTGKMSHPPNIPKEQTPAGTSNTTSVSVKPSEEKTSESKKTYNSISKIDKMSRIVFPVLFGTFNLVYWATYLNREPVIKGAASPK
human GABAA α5β3γ2, sequence (P28472 26-473 partner): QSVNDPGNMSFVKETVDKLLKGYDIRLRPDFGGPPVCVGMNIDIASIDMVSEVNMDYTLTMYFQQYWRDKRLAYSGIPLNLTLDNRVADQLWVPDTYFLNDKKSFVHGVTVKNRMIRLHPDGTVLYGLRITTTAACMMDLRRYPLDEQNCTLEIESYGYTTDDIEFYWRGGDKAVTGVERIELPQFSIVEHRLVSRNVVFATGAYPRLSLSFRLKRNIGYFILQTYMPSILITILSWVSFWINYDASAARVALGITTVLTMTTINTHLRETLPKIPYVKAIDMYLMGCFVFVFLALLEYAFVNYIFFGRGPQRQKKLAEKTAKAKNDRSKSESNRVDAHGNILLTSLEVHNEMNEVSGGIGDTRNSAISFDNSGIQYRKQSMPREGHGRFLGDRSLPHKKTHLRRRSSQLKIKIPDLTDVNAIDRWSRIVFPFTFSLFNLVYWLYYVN
human GABAA α5β3γ2, sequence (P18507 40-475): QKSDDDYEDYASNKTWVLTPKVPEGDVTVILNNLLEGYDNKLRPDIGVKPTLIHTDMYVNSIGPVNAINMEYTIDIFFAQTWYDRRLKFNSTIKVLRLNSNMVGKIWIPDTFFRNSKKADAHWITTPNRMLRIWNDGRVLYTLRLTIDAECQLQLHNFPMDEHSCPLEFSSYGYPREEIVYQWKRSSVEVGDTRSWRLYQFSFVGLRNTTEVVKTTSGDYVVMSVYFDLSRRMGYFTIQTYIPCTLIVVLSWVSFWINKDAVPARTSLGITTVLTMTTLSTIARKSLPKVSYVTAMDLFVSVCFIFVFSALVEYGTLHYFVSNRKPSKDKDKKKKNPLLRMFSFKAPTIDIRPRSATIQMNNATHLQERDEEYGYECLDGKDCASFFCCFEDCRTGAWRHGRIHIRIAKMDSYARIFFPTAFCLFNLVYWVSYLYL
Procedure: Freshly prepared oocytes of maturation stage VI were bought from Ecocyte Bioscience (Castrop-Rauxel, Germany) and, after overnight delivery, plated into 96-well plates (Greiner no. 651101) for microinjection on a ROBOOCYTE R16 system (Multichannel Systems MCS GmbH, Reutlingen, Germany). Each oocyte was injected with roughly 50 nL of RNA solution. The solution for expressing receptors composed of the human α1, β2 and γ2 subunits contained 3 pg/nL of α1 and β2 RNA and 15 pg/nL of γ2 RNA. The solution for expressing human α2β3γ2 receptors contained 2.5 pg/nL of α2 and β3 RNA, 5 pg/nL of γ2 RNA and 10 pg/nL of GABARAP RNA. The solution for expressing human α3β3γ2 receptors contained 1.3 pg/nL of α3 and β3 RNA and 6.5 pg/nL of γ2 RNA. The solution for expressing human α5β3γ2 receptors contained 1.3 pg/nL of α5 and β3 RNA and 13 pg/nL of γ2 RNA. […] After the microinjection the oocytes were kept at 20 °C temperature until the electrophysiological experiment. Experiments were done 3 to 5 days later on the ROBOOCYTE instrument which employs the two-microelectrode voltage-clamp technique for membrane voltage control and current measurement. […] During current recording and compound testing the cell membrane was constantly clamped to − 80 mV. Current signals were recorded and stored on a PC-type computer using the ROBOOCYTE software.
During the microinjection and up to the electrophysiological experiment the oocytes were kept in a solution containing 88 mM NaCl, 1 mM KCl, 2.5 mM NaHCO3, 10 mM HEPES (AppliChem GmbH, Darmstadt, Germany), 0.82 MgSO4, 0.33 mM Ca(NO3)2, 0.33 mM CaCl2, 100 U/mL penicillin (GIBCO, ThermoFisher Scientific) and 100 µg/mL streptomycine (GIBCO, ThermoFisher Scientific). The pH was adjusted to 7.5. During the experiment the voltage-clamped oocyte was constantly superfused by a solution containing 90 mM NaCl, 1 mM KCl, 5 mM HEPES (AppliChem), 1 mM MgCl2 and 1 mM CaCl2 (pH 7.4). GABA and test compounds were added to this solution. GABA concentrations were chosen according to previously determined concentration–response relations for the different human GABAA receptor subunit combinations. Concentrations evoking approximately 10% of a maximal response were selected, i.e., 8 µM for α1β2γ2, 6 µM for α2β3γ2, 10 µM for α3β3γ2 and 5 µM for α5β3γ2. Solutions containing GABA or test compounds were freshly prepared at least every second day. […] Compounds were further diluted in DMSO and finally in extracellular saline to reach a DMSO concentration of 0.1%. The same amount of DMSO was added to the control solutions without test compounds.
During the experiment the solutions were fed into the well containing the voltage-clamped oocyte via Teflon tubings connected by electromagnetic valves which allowed rapid switching between different solutions (controlled by the ROBOCYTE software). Approximately 1–2 min after impaling an oocyte and switching to voltage-clamp mode GABA was applied for 90 s to record a control response. Thereafter the oocyte was washed with saline for 160 s followed by another 90 s GABA application. Then 30 s after the onset of the second GABA application the system switched to a solution containing GABA plus the test compound. Each oocyte was used for testing one concentration of a single test compound (for α5β3γ2: 1 nM: n = 8, 10 nM: n = 8, 100 nM: n = 7, 1000 nM: n = 7).
In this case each GABA application lasted 110 s and the rest period between the two GABA applications was 190 s long.
On each 96-well plate 3–6 oocytes were used for testing a known NAM at the BZD binding site, β-CCM (FG7106), as a positive control. […] Maximally effective concentrations of β-CCM were used for each subunit combination, i.e., 100 nM β-CCM for α1β2γ2, 300 nM for α2β3γ2 or α3β3γ2 and 1 µM for α5β3γ2.

[5] = concentration–response curve, n = 7

Cc1onc(-c2ccc(F)cc2)c1COc1ccc(C(=O)N2CCS(=O)(=O)CC2)cn1 [basmisanil]
% Inhibition (Serotonin 5-HT1B): 0% | % Inhibition (Serotonin 5-HT2B): 31% | % Inhibition (Serotonin 5-HT7): 13% | % Inhibition [1]: -6% | % Inhibition (Cholecystokinin CCK1): 10% | % Inhibition (Neurotensin NTS1 (NT1)): -6% | % Inhibition (Opioid δ2): 8% | % Inhibition [2]: 0% | % Inhibition [3]: -3% | concentration at 3.75 h ([4]; subject 11010, 40 mg, 3.75 h prior to scan): 592 ng/mL | concentration at 3.12 h ([4]; subject 11020, 160 mg, 3.12 h prior to scan): 2280 ng/mL | concentration at 3 h ([4]; subject 11021, 160 mg, 3.00 h prior to scan): 2550 ng/mL | concentration at 2.63 h ([4]; subject 13010, 40 mg, 2.63 h prior to scan): 422 ng/mL | concentration at 4.75 h ([4]; subject 13030, 1000 mg, 4.75 h prior to scan): 2200 ng/mL | concentration at 4.77 h ([4]; subject 13031, 1000 mg, 4.77 h prior to scan): 3350 ng/mL | concentration at 1.48 h ([4]; subject 13040, 20 mg, 1.48 h prior to scan): 111 ng/mL | concentration at 2.2 h ([4]; subject 13041, 20 mg, 2.20 h prior to scan): 398 ng/mL | concentration at 2.43 h ([4]; subject 13050, 80 mg, 2.43 h prior to scan): 1000 ng/mL | safety and tolerability (healthy subjects; PET and EEG studies): safe and well tolerated | adverse events (healthy subjects; any cohort): no severe adverse events | enhancement of cognitive performance (non-impaired rodents): have not shown enhancement of cognitive performance | decrease of GABA-induced current under co-treatment with flumazenil (human GABAA α5β3γ2; 100 nM basmisanil + flumazenil 30 or 1000 nM): blocked by co-treatment with flumazenil | reduction of the GABA-evoked current (human GABAA α5β3γ2; 1 µM, highest concentration tested, 5 µM GABA): 42 ± 1% | Hill slope (human GABAA α5β3γ2; [5]): 0.9 | IC50 (human GABAA α5β3γ2; [5]): 8 nM
